Data reported in PubChem BioAssay AID1745844 (Carcinogenic Potency Database (CPDB), 2022).
Active and inactive are the calls of the source. The rule behind the calls is not given here.

System: rodent lifetime carcinogenesis bioassay, tumor incidence TD50
Assay: chronic cancer bioassays in animals – CPDB, compiled studies (AID 1745844)

COC(C(=O)O)c1ccccc1 (centres undefined)
TD50 (mouse, strain B6AKF1, females, oral dosing, site: any site (literature study), lesion: several types, types named in the paper, dosed 76 weeks, study length 76 weeks): 227 mg/kg/day (inactive) | carcinogen call (mouse, strain B6AKF1, females, oral dosing, site: liver, lesion: hepatoma, dosed 76 weeks, study length 76 weeks): negative (inactive) | TD50 (mouse, strain B6AKF1, females, oral dosing, site: lung, lesion: adenoma, dosed 76 weeks, study length 76 weeks): 236 mg/kg/day (inactive) | TD50 (mouse, strain B6AKF1, males, oral dosing, site: any site (literature study), lesion: several types, types named in the paper, dosed 76 weeks, study length 76 weeks): 139 mg/kg/day (inactive) | TD50 (mouse, strain B6AKF1, males, oral dosing, site: liver, lesion: hepatoma, dosed 76 weeks, study length 76 weeks): 3620 mg/kg/day (inactive) | TD50 (mouse, strain B6AKF1, males, oral dosing, site: lung, lesion: adenoma, dosed 76 weeks, study length 76 weeks): 157 mg/kg/day (inactive) | TD50 (mouse, strain B6C3F1, females, oral dosing, site: any site (literature study), lesion: several types, types named in the paper, dosed 76 weeks, study length 76 weeks): 157 mg/kg/day (inactive) | carcinogen call (mouse, strain B6C3F1, females, oral dosing, site: liver, lesion: hepatoma, dosed 76 weeks, study length 76 weeks): negative (inactive) | TD50 (mouse, strain B6C3F1, females, oral dosing, site: lung, lesion: adenoma, dosed 76 weeks, study length 76 weeks): 244 mg/kg/day (inactive) | TD50 (mouse, strain B6C3F1, males, oral dosing, site: all sites, lesion: reticulum-cell sarcoma, dosed 76 weeks, study length 76 weeks): 82.1 mg/kg/day (inactive) | TD50 (mouse, strain B6C3F1, males, oral dosing, site: any site (literature study), lesion: several types, types named in the paper, dosed 76 weeks, study length 76 weeks): 54.2 mg/kg/day (inactive) | TD50 (mouse, strain B6C3F1, males, oral dosing, site: liver, lesion: hepatoma, dosed 76 weeks, study length 76 weeks): 227 mg/kg/day (inactive) | carcinogen call (mouse, strain B6C3F1, males, oral dosing, site: lung, lesion: several types, types named in the paper, dosed 76 weeks, study length 76 weeks): negative (inactive)

CCCNN
TD50 (mouse, strain Swiss albino, females, in drinking water, site: lung, lesion: adenocarcinoma, dosed 99 weeks, study length 99 weeks): 109 mg/kg/day | TD50 (mouse, strain Swiss albino, females, in drinking water, site: lung, lesion: adenoma, dosed 99 weeks, study length 99 weeks): 42.7 mg/kg/day | TD50 (mouse, strain Swiss albino, females, in drinking water, site: lung, lesion: several types, types named in the paper, dosed 99 weeks, study length 99 weeks): 41.4 mg/kg/day | TD50 (mouse, strain Swiss albino, males, in drinking water, site: liver, lesion: liver-cell carcinoma, dosed 93 weeks, study length 93 weeks): 102 mg/kg/day (inactive) | TD50 (mouse, strain Swiss albino, males, in drinking water, site: liver, lesion: several types, types named in the paper, dosed 93 weeks, study length 93 weeks): 80.8 mg/kg/day | TD50 (mouse, strain Swiss albino, males, in drinking water, site: lung, lesion: adenoma, dosed 93 weeks, study length 93 weeks): 41.3 mg/kg/day | TD50 (mouse, strain Swiss albino, males, in drinking water, site: lung, lesion: several types, types named in the paper, dosed 93 weeks, study length 93 weeks): 50.5 mg/kg/day

Nc1ccc(N=Nc2ccccc2)c(N)n1
TD50 (mouse, strain B6C3F1, females, in feed, site: any site (literature study), lesion: several types, types named in the paper, dosed 80 weeks, study length 105 weeks): 89.7 mg/kg/day | TD50 (mouse, strain B6C3F1, females, in feed, site: liver, lesion: hepatocellular adenoma + hepatocellular carcinoma + neoplastic nodule, dosed 80 weeks, study length 105 weeks): 71.1 mg/kg/day | TD50 (mouse, strain B6C3F1, females, in feed, site: liver, lesion: hepatocellular adenoma + hepatocellular carcinoma, dosed 80 weeks, study length 105 weeks): 71.1 mg/kg/day | TD50 (mouse, strain B6C3F1, females, in feed, site: liver, lesion: hepatocellular carcinoma, dosed 80 weeks, study length 105 weeks): 132 mg/kg/day | TD50 (mouse, strain B6C3F1, females, in feed, site: lung, lesion: alveolar/bronchiolar adenoma + alveolar/bronchiolar carcinoma, dosed 80 weeks, study length 105 weeks): 4650 mg/kg/day | TD50 (mouse, strain B6C3F1, males, in feed, site: any site (literature study), lesion: several types, types named in the paper, dosed 80 weeks, study length 105 weeks): 496 mg/kg/day (inactive) | TD50 (mouse, strain B6C3F1, males, in feed, site: liver, lesion: hepatocellular adenoma + hepatocellular carcinoma + neoplastic nodule, dosed 80 weeks, study length 105 weeks): 811 mg/kg/day | TD50 (mouse, strain B6C3F1, males, in feed, site: lung, lesion: alveolar/bronchiolar adenoma + alveolar/bronchiolar carcinoma, dosed 80 weeks, study length 105 weeks): 1300 mg/kg/day | TD50 (rat, strain Fischer 344, females, in feed, site: colon, lesion: adenocarcinoma, NOS, dosed 78 weeks, study length 105 weeks): 687 mg/kg/day | TD50 (rat, strain Fischer 344, males, in feed, site: colon + rectum, lesion: adenocarcinoma, NOS + adenoma, NOS, dosed 78 weeks, study length 104 weeks): 303 mg/kg/day | TD50 (rat, strain Fischer 344, males, in feed, site: colon + rectum, lesion: adenocarcinoma, NOS, dosed 78 weeks, study length 104 weeks): 333 mg/kg/day | TD50 (rat, strain Fischer 344, males, in feed, site: liver, lesion: hepatocellular adenoma + hepatocellular carcinoma + neoplastic nodule, dosed 78 weeks, study length 104 weeks): 2170 mg/kg/day

CN[C@H]1CC[C@@H](c2ccc(Cl)c(Cl)c2)c2ccccc21
TD50 (mouse, strain Charles River CD1, females, in feed, site: lung, lesion: alveolar/bronchiolar adenoma, dosed 104 weeks, study length 104 weeks): 247 mg/kg/day (inactive) | TD50 (mouse, strain Charles River CD1, males, in feed, site: liver, lesion: hepatocellular adenoma, dosed 104 weeks, study length 104 weeks): 147 mg/kg/day | TD50 (mouse, strain Charles River CD1, males, in feed, site: liver, lesion: hepatocellular carcinoma, dosed 104 weeks, study length 104 weeks): 425 mg/kg/day | TD50 (rat, strain Long-Evans, females, in feed, site: thyroid gland, lesion: follicular-cell adenoma, dosed 104 weeks, study length 104 weeks): 352 mg/kg/day (inactive)

CC(O)CNCC(C)O (centres undefined)
carcinogen call (rat, strain Wistar, males, in feed, site: liver, lesion: hepatocellular carcinoma, dosed 94 weeks, study length 94 weeks): negative (inactive) | carcinogen call (rat, strain Wistar, males, in feed, site: lung, lesion: one or several types, types not named, dosed 94 weeks, study length 94 weeks): negative (inactive) | carcinogen call (rat, strain Wistar, males, in feed, site: nasal cavity, lesion: one or several types, types not named, dosed 94 weeks, study length 94 weeks): negative (inactive)
